Results taken from ChEMBL document CHEMBL3351324, “Impact of Stereochemistry on Ligand Binding: X-ray Crystallographic Analysis of an Epoxide-Based HIV Protease Inhibitor” (ACS Med Chem Lett, 2014).
The source made the active and inactive calls. The rule behind the calls is not given here.

Assays:
[1] = biological target: Protease (Human immunodeficiency virus 1, UniProt Q9YQ12); assay: Inhibition of HIV1 protease by standard fluorimetric assay
[2] = biological target: Protease (Human immunodeficiency virus 1) (UniProt Q9YQ12); assay: Time dependent inhibition of HIV1 protease by standard fluorimetric assay
[3] = biological target: Protease (Human immunodeficiency virus 1) (UniProt Q9YQ12); assay: Irreversible inhibition of HIV1 protease by standard fluorimetric assay
[4] = biological target: Protease (Human immunodeficiency virus 1) (UniProt Q9YQ12); assay: Covalent inhibition of HIV1 protease assessed as covalent modification of enzyme residues by ESI-MS method
[5] = biological target: Protease (Human immunodeficiency virus 1) (UniProt Q9YQ12); assay: Inhibition of HIV1 protease assessed as compound epoxide ring interaction with enzyme active site by X-ray crystallography

- IC50 [1]: 670 nM
- inhibition [2]: inactive
- inhibition [3]: inactive
- inhibition [4]: inactive
- inhibition [5]: Active
SMILES: CC(C)[C@H](NC(=O)COc1ccccc1)C(=O)N[C@@H](Cc1ccccc1)[C@@H](O)[C@@H]1O[C@H]1Cc1ccccc1
